In one series the test system is Phytophthora infestans. Type of series: in vivo. The conditions noted are these: tomato plants, spray, 500 ppm, grading 5 days after contamination.
The conditions of series [1]: pH 2.7.

Each structure is given as a SMILES string. Marks after values point to notes of the source that are not given here.

In turn, `Cc1cccc(C(=NOCc2cccc(NC(=O)OCCc3ccccc3)n2)c2noc(=O)n2C)c1` [Example 272] displayed an Eff. % in the series on Phytophthora infestans of 88%. For the same molecule, the LogP (commonly a log measure of how a compound divides between an organic and an aqueous phase) in series [1] is 4.49 [a].
The corresponding values for `CCCCCC(C)OC(=O)Nc1cccc(CO/N=C(/c2ccccc2)c2noc(=O)n2C)n1` (stereo not drawn) [Example 285] are 88% and 5.19 [a].
In the same order, the values of `CC(C)COC(=O)Nc1nc(CO/N=C(/c2ccccc2)c2noc(=O)n2C)cs1` [Example 286] are 97% and 3.71 [a].
`Cn1c(/C(=N\OCc2cccc(NC(=O)OCCC#N)n2)c2ccccc2)noc1=O` [Example 288] gave an Eff. % with Phytophthora infestans of 97%. Besides, the LogP in series [1] was 2.78 [a].
Turning to `Cn1c(/C(=N\OCc2csc(NC(=O)c3cccc(Br)c3)n2)c2ccccc2)noc1=O` [Example 289], the Eff. % in the series on Phytophthora infestans is 98%. Further, the LogP in series [1] is 4.04 [a].
The corresponding values for `COc1cccc(C(=NOCc2cccc(NC(=O)OCc3ccccc3)n2)c2noc(=O)n2C)c1` [Example 290] are 75% and 4.04 [a].
In the same order, the values of `Cn1c(/C(=N\OCc2cccc(NC(=O)OCCc3ccccc3)n2)c2cccc(F)c2)noc1=O` [Example 297] are 95% and 4.26 [a].
Turning to `CCCCCOC(=O)Nc1cccc(CO/N=C(/c2ccccc2)c2noc(=O)n2CC)n1` [Example 300], in the series with Phytophthora infestans, the Eff. % came to 100%. Further, the LogP in series [1] is 4.72 [a].
In the same order, the values of `Cn1c(/C(=N\OCc2cccc(NC(=O)CCc3ccc(F)cc3)n2)c2ccccc2)noc1=O` [Example 301] are 100% and 3.81 [a].
The corresponding values for `CCCCCCCCCC(=O)Nc1cccc(CO/N=C(/c2ccccc2)c2noc(=O)n2C)n1` [Example 303] are 98% and 5.54 [a].
The corresponding values for `C=CC(=O)Nc1cccc(CO/N=C(/c2ccccc2)c2noc(=O)n2C)n1` [Example 304] are 83% and 2.77 [a].
Regarding `Cn1c(/C(=N\OCc2cccc(NC(=O)C3(F)CC3)n2)c2ccccc2)noc1=O` [Example 309], the Eff. % in the series with Phytophthora infestans stood at 100%. In series [1], the log partition coefficient (LogP) was 3.31 [a].
The molecule `COc1ccc(CCOC(=O)Nc2cccc(CO/N=C(/c3ccccc3)c3noc(=O)n3C)n2)cc1` [Example 310] returned an Eff. % in the series on Phytophthora infestans of 70%. The lipophilicity (LogP) in series [1] was 4.08 [a].
The corresponding values for `Cn1c(/C(=N\OCc2cccc(NC(=O)COc3ccccc3)n2)c2ccccc2)noc1=O` [Example 313] are 100% and 3.73 [a].
`Cn1c(/C(=N\OCc2cccc(NC(=O)C3CC4C=CC3C4)n2)c2ccccc2)noc1=O` (stereo not drawn) [Example 323] displayed an Eff. % in the series with Phytophthora infestans of 100%. Further, in series [1], the LogP was 3.68 [a].
The corresponding values for `CCCC(C)C(=O)Nc1cccc(CO/N=C(/c2cccc(OC)c2)c2noc(=O)n2C)n1` (stereo not drawn) [Example 328] are 75% and 3.87 [a].
In the same order, the values of `Cn1c(/C(=N\OCc2cccc(NC(=O)c3cccc(Oc4ccccc4)c3)n2)c2ccccc2)noc1=O` [Example 329] are 93% and 4.61 [a].
The corresponding values for `Cn1c(/C(=N\OCc2cccc(NC(=O)c3ccccc3I)n2)c2ccccc2)noc1=O` [Example 331] are 98% and 3.76 [a].
`Cn1c(/C(=N\OCc2cccc(NC(=O)Cc3ccccc3Br)n2)c2ccccc2)noc1=O` [Example 335] gave an Eff. % in the series with Phytophthora infestans of 99%. In series [1], the lipophilicity (LogP) was 3.85 [a].
The corresponding values for `CCCC(C)COC(=O)Nc1cccc(CO/N=C(/c2ccccc2)c2noc(=O)n2C)n1` (stereo not drawn) [Example 337] are 99% and 4.83 [a].
In the case of `Cc1ccc(C(=O)Nc2cccc(CO/N=C(/c3ccccc3)c3noc(=O)n3C)n2)o1` [Example 345], the Eff. % in the series with Phytophthora infestans stood at 99%. Moreover, the LogP in series [1] was 3.46 [a].

The values above are taken from patent US9090600B2, “Fungicidal 4-substituted-3-{phenyl[(heterocyclylmethoxy)imino]methyl}-1,2,4-oxadizol-5(4H)-one derivatives” (BAYER INTELLECTUAL PROPERTY GMBH, priority 2011, dated 2015).
